This passage reports IC50 results from BindingDB's records for doi:10.1016/j.ejmech.2017.05.048 (University of Auckland, 2017).

Where only a bound is given, the exact number is not on record here.

A short description of the assay: Inhibition of perforin (unknown origin)-mediated 51Cr-labelled human Jurkat cell lysis preincubated with protein for 30 mins followed by cell addition measured after 4 hrs by gamma counting method.
Consider `CN1Cc2cc(-c3ccc(-c4cncc(NS(=O)(=O)c5ccc(I)cc5)c4)s3)ccc2C1=O`, for which the IC50 came to 5 µM.
`CN1Cc2cc(-c3ccc(-c4cncc(NS(=O)(=O)c5cccc(Cl)c5F)c4)s3)ccc2C1=O` had an IC50 of 13 µM. Against the preceding molecule, the IC50 is about 2.6-fold higher.
`CN1Cc2cc(-c3ccc(-c4cncc(NS(=O)(=O)c5cccc(C(F)(F)F)c5)c4)s3)ccc2C1=O` returned an IC50 of 1.22 µM.
With `CN1Cc2cc(-c3ccc(-c4cncc(NS(=O)(=O)c5ccc(C(F)(F)F)cc5)c4)s3)ccc2C1=O`, the IC50 was over 20 µM.
Regarding `CN1Cc2cc(-c3ccc(-c4cncc(NC(=O)c5ccc(F)cc5F)c4)s3)ccc2C1=O`, the IC50 was over 20 µM.
Molecule `CN1Cc2cc(-c3ccc(-c4cncc(NS(=O)(=O)c5cccc(Br)c5)c4)s3)ccc2C1=O` had an IC50 of 2.11 µM.
In the case of `CN1Cc2cc(-c3ccc(-c4cncc(S(=O)(=O)Nc5ccc(F)cc5F)c4)s3)ccc2C1=O`, the IC50 amounted to 2.24 µM. This IC50 and that of the molecule before are within 1.5-fold of each other.
In the case of `CN1Cc2cc(-c3ccc(-c4cncc(NS(=O)(=O)c5ccccc5F)c4)s3)ccc2C1=O` it was 2.03 µM.
Under `CN1Cc2cc(-c3ccc(-c4cncc(NS(=O)(=O)c5ccccc5)c4)s3)ccc2C1=O` stands 8.46 µM; under `Cc1ncsc1S(=O)(=O)Nc1cncc(-c2ccc(-c3ccc4c(c3)CN(C)C4=O)s2)c1`, 11.6 µM; under `Cc1ccc(S(=O)(=O)Nc2ccccn2)cc1-c1ccc(-c2ccc3c(c2)CN(C)C3=O)s1`, over 20 µM.
`CN1Cc2cc(-c3ccc(-c4ccc(OC(F)(F)F)c(NS(=O)(=O)c5ccccn5)c4)s3)ccc2C1=O` displayed a 50% inhibitory concentration (IC50) of over 20 µM.
With `CN1Cc2cc(-c3ccc(-c4cncc(NS(=O)(=O)c5ccccc5Br)c4)s3)ccc2C1=O`, the IC50 stood at 2.66 µM.
The molecule `CN1Cc2cc(-c3ccc(-c4ccc(NS(=O)(=O)c5ccc(F)cc5F)nc4)s3)ccc2C1=O` showed an IC50 of over 20 µM.
In the case of `COC(=O)c1ccccc1S(=O)(=O)Nc1cncc(-c2ccc(-c3ccc4c(c3)CN(C)C4=O)s2)c1`, half-maximal inhibition (IC50) was put at 2.9 µM.
`CN1Cc2cc(-c3ccc(-c4cncc(NS(=O)(=O)c5ccc(-c6cnco6)cc5)c4)s3)ccc2C1=O` returned a half-maximal inhibitory concentration (IC50) of 3.05 µM. The IC50 values of the last two molecules are within 1.5-fold of each other.
Under `COC(=O)c1ccc(S(=O)(=O)Nc2cncc(-c3ccc(-c4ccc5c(c4)CN(C)C5=O)s3)c2)cc1` stands 8.16 µM; under `CN1Cc2cc(-c3ccc(-c4cncc(N(C)S(=O)(=O)c5ccc(F)cc5F)c4)s3)ccc2C1=O`, 16.1 µM; under `CN1Cc2cc(-c3ccc(-c4cncc(NS(=O)(=O)c5c(F)cc(F)cc5F)c4)s3)ccc2C1=O`, 1.76 µM.
The molecule `CN1Cc2cc(-c3ccc(-c4cncc(NS(=O)(=O)c5ccc(-c6ccno6)s5)c4)s3)ccc2C1=O` had an IC50 of 7.1 µM.
Under `CN1Cc2cc(-c3ccc(-c4cncc(NS(=O)(=O)c5ccc(F)cc5)c4)s3)ccc2C1=O` stands 9.65 µM; under `CN1Cc2cc(-c3ccc(-c4cncc(NS(=O)(=O)c5ccsc5)c4)s3)ccc2C1=O`, 12.5 µM; under `CN1Cc2cc(-c3ccc(-c4cncc(NS(=O)(=O)c5cccc(F)c5)c4)s3)ccc2C1=O`, 20 µM.
In the case of `CN1Cc2cc(-c3ccc(-c4cncc(NS(=O)(=O)c5ccc(Br)cc5)c4)s3)ccc2C1=O` it was 8.77 µM.
In turn, `CN1Cc2cc(-c3ccc(-c4cncc(NS(=O)(=O)c5ccccc5C(F)(F)F)c4)s3)ccc2C1=O` gave an IC50 of 1.45 µM. Against the preceding molecule, the IC50 is about 6-fold lower.
In the case of `CN1Cc2cc(-c3ccc(-c4cccc(NS(=O)(=O)c5ccc(F)cc5F)c4)s3)ccc2C1=O`, the IC50 is 5.74 µM. Compared with the last molecule, the IC50 is about 4-fold higher.
In the case of `CN1Cc2cc(-c3ccc(-c4cncc(NS(=O)(=O)c5ccc(C(=O)O)cc5)c4)s3)ccc2C1=O` it was 0.75 µM; in that of `CN1Cc2cc(-c3ccc(-c4cncc(NS(=O)(=O)c5ccc(C(F)(F)F)cc5Cl)c4)s3)ccc2C1=O`, over 20 µM; in that of `CN1Cc2cc(-c3ccc(-c4cncc(NS(=O)(=O)c5ccc(Cl)c(Cl)c5)c4)s3)ccc2C1=O`, 1.32 µM.
`CN1Cc2cc(-c3ccc(-c4cncc(NS(=O)(=O)c5ccc6c(c5)OCCO6)c4)s3)ccc2C1=O`: the IC50 is over 20 µM.
Under `CN1Cc2cc(-c3ccc(-c4cncc(NS(=O)(=O)c5ccc(C#N)cc5)c4)s3)ccc2C1=O` stands 5.17 µM.
The molecule `CN1Cc2cc(-c3ccc(-c4cncc(NS(=O)(=O)c5ccccc5S(C)(=O)=O)c4)s3)ccc2C1=O` came in with an IC50 of 6.8 µM.
Under `CN1Cc2cc(-c3ccc(-c4cnc(F)c(NS(=O)(=O)c5ccccn5)c4)s3)ccc2C1=O` stands 4.1 µM; under `CN1Cc2cc(-c3ccc(-c4cncc(NS(=O)(=O)c5ccccc5C#N)c4)s3)ccc2C1=O`, 9.17 µM.
For the molecule `CN1Cc2cc(-c3ccc(-c4cncc(NS(=O)(=O)c5ccc(Cl)cc5Cl)c4)s3)ccc2C1=O`, the IC50 is 15 µM. This IC50 lies about 1.6-fold higher than the previous one.
The molecule `CN1Cc2cc(-c3ccc(-c4cncc(NS(=O)(=O)c5cccnc5)c4)s3)ccc2C1=O` registered an IC50 of 15.1 µM. This IC50 and that of the molecule before are within 1.5-fold of each other.
Regarding `CN1Cc2cc(-c3ccc(-c4cncc(NS(=O)(=O)c5cccs5)c4)s3)ccc2C1=O`, the IC50 turned out to be 1.07 µM.
For the molecule `COc1ncc(-c2ccc(-c3ccc4c(c3)CN(C)C4=O)s2)cc1NS(=O)(=O)c1ccc(F)cc1F`, 3.56 µM corresponded to half-maximal inhibition (IC50).
Molecule `CN1Cc2cc(-c3ccc(-c4cncc(NS(=O)(=O)c5ccccc5Cl)c4)s3)ccc2C1=O` returned an IC50 of 4.01 µM.
`CN1Cc2cc(-c3ccc(-c4cncc(NS(=O)(=O)c5cc(C(F)(F)F)cc(C(F)(F)F)c5)c4)s3)ccc2C1=O` registered an IC50 of over 20 µM.
`CN1Cc2cc(-c3ccc(-c4cnc(F)c(NS(=O)(=O)c5ccc(F)cc5F)c4)s3)ccc2C1=O` came in with an IC50 of 1.99 µM. That is a single-digit micromolar value.
The molecule `CN1Cc2cc(-c3ccc(-c4cc(NS(=O)(=O)c5ccccn5)ccc4F)s3)ccc2C1=O` gave a half-inhibitory concentration (IC50) of over 20 µM.
As for `CN1Cc2cc(-c3ccc(-c4cncc(NS(=O)(=O)c5ccc(F)c(C(F)(F)F)c5)c4)s3)ccc2C1=O`, the IC50 is 3.75 µM.
Under `CN1Cc2cc(-c3ccc(-c4cncc(NS(=O)(=O)c5ccccn5)c4)s3)ccc2C1=O` stands 1.07 µM; under `CN1Cc2cc(-c3ccc(-c4cncc(NS(=O)(=O)c5ccc(F)c(F)c5)c4)s3)ccc2C1=O`, 18.6 µM; under `CN1Cc2cc(-c3ccc(-c4cccc(S(=O)(=O)Nc5ccccn5)c4)s3)ccc2C1=O`, 8.92 µM.
The molecule `CN1Cc2cc(-c3ccc(-c4cnc(Cl)c(NS(=O)(=O)c5ccc(F)cc5F)c4)s3)ccc2C1=O` registered an IC50 of 1.03 µM.
Consider `CN1Cc2cc(-c3ccc(-c4cncc(NS(=O)(=O)c5cccc(C#N)c5)c4)s3)ccc2C1=O`, for which the IC50 was over 20 µM.
`COC(=O)c1cccc(S(=O)(=O)Nc2cncc(-c3ccc(-c4ccc5c(c4)CN(C)C5=O)s3)c2)c1` displayed an IC50 of 7.77 µM.
As for `Cc1ccc(S(=O)(=O)Nc2cncc(-c3ccc(-c4ccc5c(c4)CN(C)C5=O)s3)c2)cc1Cl`, the IC50 stood at 8.14 µM.
In the case of `CN1Cc2cc(-c3ccc(-c4cncc(NS(=O)(=O)c5cc(Br)cc(C(F)(F)F)c5)c4)s3)ccc2C1=O` it was over 20 µM; in that of `CN1Cc2cc(-c3ccc(-c4cncc(NS(=O)(=O)c5ccccc5OC(F)(F)F)c4)s3)ccc2C1=O`, 17.7 µM; in that of `CN1Cc2cc(-c3ccc(-c4cncc(NS(=O)(=O)c5ccc(OC(F)(F)F)cc5)c4)s3)ccc2C1=O`, over 20 µM.
Under `COc1cccc(S(=O)(=O)Nc2cncc(-c3ccc(-c4ccc5c(c4)CN(C)C5=O)s3)c2)c1` stands 2.56 µM; under `Cc1ccc(NS(=O)(=O)c2ccccn2)cc1-c1ccc(-c2ccc3c(c2)CN(C)C3=O)s1`, 15.4 µM; under `CN1Cc2cc(-c3ccc(-c4cncc(NS(=O)(=O)c5cccc(Cl)c5)c4)s3)ccc2C1=O`, 2.42 µM.
On to `CCOC(=O)c1ccc(S(=O)(=O)Nc2cncc(-c3ccc(-c4ccc5c(c4)CN(C)C5=O)s3)c2)cc1`, for which 19.4 µM corresponded to half-maximal inhibition (IC50).
`CN1Cc2cc(-c3ccc(-c4ccnc(NS(=O)(=O)c5ccc(F)cc5F)c4)s3)ccc2C1=O` registered an IC50 of 4.7 µM. Against the preceding molecule, the IC50 is about 4.1-fold lower.
The molecule `COc1ccc(-c2ccc(-c3ccc4c(c3)CN(C)C4=O)s2)cc1S(=O)(=O)Nc1ccccn1` displayed an IC50 of 9.68 µM. Compared with the last molecule, the IC50 is about 2.1-fold higher.
`CN1Cc2cc(-c3ccc(-c4cncc(NS(=O)(=O)c5cccc(OC(F)(F)F)c5)c4)s3)ccc2C1=O` registered an IC50 of 1.42 µM.
In the case of `CN1Cc2cc(-c3ccc(-c4cncc(NS(=O)(=O)c5ccc(Cl)cc5)c4)s3)ccc2C1=O` it was 5.39 µM.
On to `Cc1cc(F)ccc1S(=O)(=O)Nc1cncc(-c2ccc(-c3ccc4c(c3)CN(C)C4=O)s2)c1`, for which 5.53 µM corresponded to half-maximal inhibition (IC50).
Regarding `CN1Cc2cc(-c3ccc(-c4cncc(NS(=O)(=O)c5ccc([N+](=O)[O-])cc5)c4)s3)ccc2C1=O`, half-maximal inhibition (IC50) was put at 2.74 µM.
Regarding `CN1Cc2cc(-c3ccc(-c4cncc(NS(=O)(=O)c5ccc(S(C)(=O)=O)cc5)c4)s3)ccc2C1=O`, the IC50 is over 20 µM.
`CN1Cc2cc(-c3ccc(-c4cncc(NS(=O)(=O)c5ccc(Br)cc5Br)c4)s3)ccc2C1=O` yielded an IC50 of 2.87 µM. That is a single-digit micromolar value.
As to `CN1Cc2cc(-c3ccc(-c4cncc(NS(=O)(=O)c5ccccc5[N+](=O)[O-])c4)s3)ccc2C1=O`, the IC50 worked out at 6.65 µM.
`COc1ccc(S(=O)(=O)Nc2cncc(-c3ccc(-c4ccc5c(c4)CN(C)C5=O)s3)c2)cc1` gave an IC50 of 6.27 µM.
`Cc1ccc(NS(=O)(=O)c2ccc(F)cc2F)cc1-c1ccc(-c2ccc3c(c2)CN(C)C3=O)s1` showed an IC50 of over 20 µM.
`COc1ccccc1S(=O)(=O)Nc1cncc(-c2ccc(-c3ccc4c(c3)CN(C)C4=O)s2)c1` showed an IC50 of 14.8 µM.
In turn, `Cc1cc(C)n(-c2ccc(S(=O)(=O)Nc3cncc(-c4ccc(-c5ccc6c(c5)CN(C)C6=O)s4)c3)cc2)n1` returned an IC50 of 19.1 µM.

The term IC50 denotes the concentration needed to halve the response being measured. Read a low IC50 as higher potency.
